Experiment: molar heat capacity at constant volume
Details: Vacuum adiabatic calorimetry

Cc1ccccc1 [toluene]
Fluid (supercritical or subcritical phases)
Details	molar heat capacity at constant volume [J/K/mol]
386.9 K, Mass density=777.8 kg/m3	147.79
387.48 K, Mass density=777.8 kg/m3	147.7
387.84 K, Mass density=777.8 kg/m3	146.41
388.65 K, Mass density=777.8 kg/m3	146.96
392.83 K, Mass density=777.8 kg/m3	145.67
393.6 K, Mass density=777.8 kg/m3	144.01
399.34 K, Mass density=777.8 kg/m3	146.68
411.33 K, Mass density=777.8 kg/m3	148.9
413.55 K, Mass density=777.8 kg/m3	149.08
545.3 K, Mass density=555.25 kg/m3	189.99
545.51 K, Mass density=555.25 kg/m3	189.07
545.84 K, Mass density=555.25 kg/m3	188.79
545.93 K, Mass density=555.25 kg/m3	189.44
548.72 K, Mass density=555.25 kg/m3	187.41
549.32 K, Mass density=555.25 kg/m3	189.25
550.41 K, Mass density=555.25 kg/m3	188.52
589.54 K, Mass density=214.64 kg/m3	349.57
589.66 K, Mass density=214.64 kg/m3	307.47
589.72 K, Mass density=214.64 kg/m3	299.45
589.84 K, Mass density=214.64 kg/m3	280.47
590.03 K, Mass density=214.64 kg/m3	271.9
590.09 K, Mass density=214.64 kg/m3	264.9
590.51 K, Mass density=214.64 kg/m3	250.8
590.58 K, Mass density=214.64 kg/m3	252.92

molar heat capacity at constant volume [J/K/mol]
Details	386.9 K	545.3 K	589.54 K	591.72 K	591.84 K	591.85 K	591.87 K	591.88 K
Gas	–	–	349.57	385.6	425.4	–	–	–
Liquid	147.79	189.99	–	–	–	331.51	422.18	442.26

Reference: the NIST ThermoML archive (doi:10.1016/j.fluid.2007.09.023)
